Reference: patent US8257755B2, “Metabolic syndrome-improving agent and medicine, supplement, functional food and food additive containing the same” (ARKRAY, Inc., priority 2005, dated 2012)

System: HepG2 cells (human hepatic cells)
Assay: VLDL secretion inhibition experiment in HepG2 cells (apoB100 ELISA)
Format: cell-based
Conditions: 30 hours, measurement group/control group, DMSO control = 100, average ± standard error
Procedure: A sandwich ELISA that recognized human apoB100 in the VLDL as an antigen was used. First, 100 μL of Moab×LDL Apolipoprotein B (ApoB) (manufactured under MONOSAN®) was dispensed in each well of ELISA PLATE, and the plate was sealed with a sterile seal and then allowed to stand still at 4° C. overnight. In the following, all the dispensing mentioned is for a single well. On the next day, 200 μL of Zepto Block (trade name, manufactured by ZeptoMetrix Corporation) was dispensed, and then the above-noted plate was sealed and allowed to stand still for 2 hours at room temperature for blocking. Subsequently, 100 μL of the medium and the VLDL standard solution were dispensed, and then the plate was sealed and allowed to stand still for 1 hour at room temperature. Washing with 200 μL of PBST and absorption using an aspirator were carried out five times in total. Then, 100 μL of Affinity Purified Anti-Apolipoprotein B (manufactured by Rockland Immunochemicals, Inc.) that had been diluted with PBS by 1000 times was dispensed and allowed to stand still for 1 hour at room temperature. After washing similarly to the above, 100 μL of Donkey Anti-goat IgG HRP (manufactured by Promega Corporation) that had been diluted with PBS by 5000 times was dispensed and allowed to stand still for 1 hour at room temperature. […] 100 μL of 1M phosphoric acid solution was added to the above-noted mixture solution, and the absorbance at 450 nm was measured using wallac ARVOsx (trade name, PerkinElmer Life Sciences, PerkinElmer, Inc.). […]
HepG2 was cultured to 80% to 90% confluence in a 100 mm/Collagen-Coated Dish (trade name, manufactured by Iwaki Glass Works, Co.). […] Using this collected medium, the number of living cells were counted, and the Western blotting and the ELISA measurement were carried out similarly to the above. From the result of the ELISA, the ratio of the VLDL secretion amount between the measurement group and the non-treated control group (measurement group/control group) was calculated for each sample.

CC(C)=CCC/C(C)=C/COc1c2ccoc2cc2oc(=O)ccc12 [Bergamottin, bergamottin]
VLDL secretion ratio (%) (10 μM): 63.4 ± 10.94%
VLDL secretion ratio (%) (20 μM): 65.5 ± 13.21%
VLDL secretion ratio (%) (50 μM): 45.9 ± 6.29%
